Where two headings read alike, the source gives them in different places.
Columns and labels:
Assay type in all cases: cell-based
EGFR L858R-T790M = target: T1, EGFR L858R-T790M (Homo sapiens, UniProt P00533, L858R/T790M); experiment: EGFR degradation, Total EGFR (L858R-specific) HTRF, NCI-H1975; conditions: 6 hours
T1 construct: NCI-H1975 (harboring EGFR heterozygous L858R-T790M mutations); host or cells: NCI-H1975
Method in brief: (§1)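 Cells in RPMI 1640 + 10% FBS treated 6 h at 37°C with compound, 11-point half-log titration from 10 μM top, in duplicate. pY1068 and total EGFR read by HTRF (pan-EGFR antibody for wild-type A431; L858R-specific for mutants); IC50 for phospho inhibition, DC50 for 50% degradation.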

EGFR L858R = EGFR L858R (Homo sapiens, UniProt P00533, L858R); experiment: EGFR degradation, Total EGFR (L858R-specific) HTRF, NCI-H3255; parameters: NCI-H3255 (harboring EGFR heterozygous L858R mutation); host or cells: NCI-H3255; conditions: NCI-H3255 cells, 6 hours, Total EGFR HTRF, read-out: H3255 EGFR DC50
Sequence of EGFR L858R (P00533 25-1210 L858R): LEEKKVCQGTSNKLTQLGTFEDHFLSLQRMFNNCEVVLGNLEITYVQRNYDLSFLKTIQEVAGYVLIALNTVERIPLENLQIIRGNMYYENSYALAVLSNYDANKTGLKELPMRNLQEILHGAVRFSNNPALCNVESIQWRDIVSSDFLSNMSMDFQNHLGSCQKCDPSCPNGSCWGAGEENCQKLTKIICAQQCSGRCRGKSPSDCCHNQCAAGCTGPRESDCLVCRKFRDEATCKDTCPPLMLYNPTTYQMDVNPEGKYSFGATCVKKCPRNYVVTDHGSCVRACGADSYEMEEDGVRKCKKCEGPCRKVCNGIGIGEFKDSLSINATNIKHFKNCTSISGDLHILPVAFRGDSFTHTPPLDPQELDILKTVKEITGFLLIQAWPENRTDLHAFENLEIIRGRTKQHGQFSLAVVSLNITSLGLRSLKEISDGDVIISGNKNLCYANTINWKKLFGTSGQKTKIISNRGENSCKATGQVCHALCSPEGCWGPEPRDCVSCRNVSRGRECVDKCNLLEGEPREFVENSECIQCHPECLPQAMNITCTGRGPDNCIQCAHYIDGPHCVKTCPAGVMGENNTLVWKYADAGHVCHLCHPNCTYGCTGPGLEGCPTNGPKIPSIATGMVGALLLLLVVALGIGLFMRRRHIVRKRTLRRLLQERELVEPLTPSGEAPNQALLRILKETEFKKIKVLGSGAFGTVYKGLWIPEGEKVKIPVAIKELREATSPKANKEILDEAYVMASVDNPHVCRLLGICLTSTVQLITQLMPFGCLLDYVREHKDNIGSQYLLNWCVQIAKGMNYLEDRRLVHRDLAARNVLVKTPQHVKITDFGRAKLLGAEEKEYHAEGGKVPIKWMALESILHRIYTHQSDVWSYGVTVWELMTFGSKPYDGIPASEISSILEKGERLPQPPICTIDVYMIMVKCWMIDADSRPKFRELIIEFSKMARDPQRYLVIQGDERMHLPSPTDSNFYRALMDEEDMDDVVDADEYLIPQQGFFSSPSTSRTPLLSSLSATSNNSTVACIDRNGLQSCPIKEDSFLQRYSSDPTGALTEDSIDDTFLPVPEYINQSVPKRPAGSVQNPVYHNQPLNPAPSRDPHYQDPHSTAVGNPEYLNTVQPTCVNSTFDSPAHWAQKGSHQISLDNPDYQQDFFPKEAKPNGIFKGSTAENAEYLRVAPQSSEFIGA
Method in brief: as §1

EGFR L858R-T790M-C797S = target: T2, EGFR L858R-T790M-C797S (Homo sapiens, UniProt P00533, C797S/L858R/T790M); experiment: EGFR degradation, Total EGFR (L858R-specific) HTRF, NCI-H1975+CS; conditions: 6 hours, Total EGFR HTRF
T2 construct: generated using CRISPR technology to introduce the additional C797S mutation by Horizon Discovery; host or cells: NCI-H1975+CS (CRISPR knock-in of C797S)
T2 sequence (P00533 25-1210 T790M/C797S/L858R): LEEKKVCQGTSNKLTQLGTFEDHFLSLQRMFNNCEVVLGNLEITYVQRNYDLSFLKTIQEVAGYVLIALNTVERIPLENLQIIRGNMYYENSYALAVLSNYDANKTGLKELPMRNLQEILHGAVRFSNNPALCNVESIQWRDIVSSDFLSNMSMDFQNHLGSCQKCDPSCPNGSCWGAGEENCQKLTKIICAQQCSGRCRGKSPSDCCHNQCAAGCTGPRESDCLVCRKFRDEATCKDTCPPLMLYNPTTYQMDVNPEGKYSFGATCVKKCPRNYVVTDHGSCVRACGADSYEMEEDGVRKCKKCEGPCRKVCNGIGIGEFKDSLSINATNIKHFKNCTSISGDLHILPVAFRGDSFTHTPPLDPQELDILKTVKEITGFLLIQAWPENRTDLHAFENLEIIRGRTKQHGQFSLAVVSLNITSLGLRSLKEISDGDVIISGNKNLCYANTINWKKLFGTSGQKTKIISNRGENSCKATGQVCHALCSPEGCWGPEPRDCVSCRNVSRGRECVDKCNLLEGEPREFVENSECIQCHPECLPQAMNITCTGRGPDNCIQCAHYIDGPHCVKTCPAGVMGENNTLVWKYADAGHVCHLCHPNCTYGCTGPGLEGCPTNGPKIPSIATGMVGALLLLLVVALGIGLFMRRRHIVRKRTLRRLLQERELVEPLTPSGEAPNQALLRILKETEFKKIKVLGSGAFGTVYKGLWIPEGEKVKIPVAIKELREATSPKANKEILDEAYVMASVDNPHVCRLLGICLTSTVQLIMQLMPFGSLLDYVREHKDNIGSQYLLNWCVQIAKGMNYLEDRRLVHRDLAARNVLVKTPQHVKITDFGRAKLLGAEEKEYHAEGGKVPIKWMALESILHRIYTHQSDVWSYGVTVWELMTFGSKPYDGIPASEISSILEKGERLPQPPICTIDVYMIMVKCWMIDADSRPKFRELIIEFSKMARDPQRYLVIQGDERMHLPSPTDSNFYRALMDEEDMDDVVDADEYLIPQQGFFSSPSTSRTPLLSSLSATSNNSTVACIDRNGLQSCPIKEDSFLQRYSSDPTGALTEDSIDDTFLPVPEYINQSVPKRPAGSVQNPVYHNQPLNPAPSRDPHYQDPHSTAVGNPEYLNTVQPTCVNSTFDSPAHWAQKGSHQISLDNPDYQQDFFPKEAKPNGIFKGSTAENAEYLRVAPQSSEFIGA
Method in brief: as §1

pY1068 EGFR L858R-T790M = target: T3, pY1068 EGFR L858R-T790M (Homo sapiens, UniProt P00533, L858R/T790M); experiment: Phospho-EGFR (pY1068) inhibition HTRF, NCI-H1975; conditions: 6 hours, read-out: pEGFR IC50
T3 construct: NCI-H1975 (harboring EGFR heterozygous L858R-T790M mutations); host or cells: NCI-H1975
T3 sequence (P00533 25-1210 T790M/L858R): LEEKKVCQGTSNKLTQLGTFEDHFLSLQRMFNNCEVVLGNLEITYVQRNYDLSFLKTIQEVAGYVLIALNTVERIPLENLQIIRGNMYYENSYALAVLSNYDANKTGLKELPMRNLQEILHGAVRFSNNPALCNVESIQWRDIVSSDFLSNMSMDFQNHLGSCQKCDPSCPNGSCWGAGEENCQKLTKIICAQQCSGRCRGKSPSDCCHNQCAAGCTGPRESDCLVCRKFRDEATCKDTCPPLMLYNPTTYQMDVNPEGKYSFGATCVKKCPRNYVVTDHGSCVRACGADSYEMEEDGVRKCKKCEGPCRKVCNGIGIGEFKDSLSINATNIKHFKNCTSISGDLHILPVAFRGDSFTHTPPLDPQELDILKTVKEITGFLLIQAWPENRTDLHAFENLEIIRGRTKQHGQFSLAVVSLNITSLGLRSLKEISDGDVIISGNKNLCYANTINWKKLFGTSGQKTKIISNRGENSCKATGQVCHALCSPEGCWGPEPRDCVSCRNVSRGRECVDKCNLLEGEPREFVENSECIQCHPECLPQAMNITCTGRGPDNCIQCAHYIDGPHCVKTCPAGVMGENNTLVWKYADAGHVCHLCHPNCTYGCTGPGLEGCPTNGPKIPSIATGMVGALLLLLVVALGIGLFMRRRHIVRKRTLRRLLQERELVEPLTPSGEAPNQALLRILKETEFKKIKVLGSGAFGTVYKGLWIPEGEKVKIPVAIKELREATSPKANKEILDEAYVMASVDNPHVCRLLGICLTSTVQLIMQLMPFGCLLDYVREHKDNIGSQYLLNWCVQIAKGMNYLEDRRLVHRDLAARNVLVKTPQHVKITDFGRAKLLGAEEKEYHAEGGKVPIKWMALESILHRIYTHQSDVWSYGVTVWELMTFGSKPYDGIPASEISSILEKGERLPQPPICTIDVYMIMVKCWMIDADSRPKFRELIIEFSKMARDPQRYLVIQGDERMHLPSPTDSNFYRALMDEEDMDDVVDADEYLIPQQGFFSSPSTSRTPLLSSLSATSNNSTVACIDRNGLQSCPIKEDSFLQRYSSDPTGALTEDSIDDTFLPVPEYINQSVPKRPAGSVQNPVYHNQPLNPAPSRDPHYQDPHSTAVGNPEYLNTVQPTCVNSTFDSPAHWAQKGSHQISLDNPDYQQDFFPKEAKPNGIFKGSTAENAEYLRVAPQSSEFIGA
Description: NCI-H1975 (harboring EGFR heterozygous L858R-T790M mutations) and NCI-H3255 (harboring EGFR heterozygous L858R mutation) were purchased from ATCC and NCI, respectively. NCI-H1975+CS (harboring EGFR heterozygous L858R-T790M-C797S mutations) was generated using CRISPR technology to introduce the additional C797S mutation by Horizon Discovery. A431 (harboring EGFR wildtype) was purchased from ATCC. RPMI 1640 no-phenol red medium and fetal bovine serum (FBS) were purchased from Gibco (Grand Island, NY, USA). Cell culture flasks and 384-well microplates were acquired from VWR (Radnor, PA, USA). Phosphorylated (pY1068) EGFR and Total EGFR (using L858R-specific detection antibody and pan-EGFR antibody for EGFR mutant cell lines and EGFR wild-type cell lines, respectively) HTRF assay kits were purchased from Cisbio (Bedford, MA, USA).
Degradation of EGFR protein containing L858R mutation or wild-type was determined based on quantification of FRET signal using a Total EGFR (L858R-specific or pan-EGFR detecting) HTRF assay kit. Phospho-EGFR (pEGFR) inhibition was determined based on quantification of FRET signal using a pY1068 EGFR HTRF assay kit. In separate assay plates, test compounds were added to the 384-well plate from a top concentration of 10 μM with 11 points, half log titration in duplicates. For each assay, 12.5 uL of cells suspended in assay media (RPMI 1640 no-phenol red medium+10% FBS) at cell densities indicated for each cell line in Table 8 below were dispensed using a multi-channel pipette to 384-well low volume white HTRF microplates containing a duplicate concentration range of test compounds and DMSO controls. The plates were kept at 37° C. with 5% CO2 for 6 hours and then incubated with either phospho EGFR or Total EGFR HTRF detection antibodies according to the cell line and EGFR mutant being assayed. Cells treated in the absence of the test compound were the negative control. Positive control was set by wells containing all reagents but no cells. FRET signal was acquired on EnVision™ Multilabel Reader (PerkinElmer, Santa Clara, CA, USA). Compound concentration that achieves 50% degradation and inhibition was reported as DC50 and IC50, respectively.

[1] = Table 9A, NCI-H1975 cells, Total EGFR HTRF, read-out: H1975 EGFR DC50
[2] = Table 9A, NCI-H1975+CS cells, read-out: H1975+ CS EGFR DC50

T1 sequence (P00533 25-1210 T790M/L858R): as above

DC50 (EGFR L858R-T790M; [1]) [µM] | DC50 (EGFR L858R; Table 9A) [µM] | DC50 (EGFR L858R-T790M-C797S; [2]) [µM] | DC50 (EGFR L858R-T790M; Table 9B, NCI-H1975 cells, Total EGFR HTRF, read-out: H1975 EGFR DC50) [µM] | DC50 (EGFR L858R; Table 9B) [µM] | DC50 (EGFR L858R-T790M-C797S; Table 9B, NCI-H1975 C797S clone, read-out: H1975 C797S clone EGFR DC50) [µM] | DC50 (EGFR L858R-T790M; H1975 (L858R-T790M), read-out: tEGFR DC50) [µM] | IC50 (pY1068 EGFR L858R-T790M) [µM] | SMILES
< 0.05 | < 0.05 | < 0.05 |  |  |  |  |  | O=C1CC[C@H](Nc2ccc(C3CCN(CC(=O)N4CCN(Cc5ccc(-c6cc(F)c7c(c6)C(=O)N(C(C(=O)Nc6nccs6)c6ncn8c6CCC8)C7)cc5)CC4)CC3)c(F)c2)C(=O)N1 (stereo partly drawn) [Compound 58, 2-(6,7-dihydro-5H-pyrrolo[1,2-c]imidazol-1-yl)-2-[6-[4-[[4-[2-[4-[4-[[(3S)-2,6-dioxo-3-piperidyl]amino]-2-fluoro-phenyl]-1-piperidyl]acetyl]piperazin-1-yl]methyl]phenyl]-4-fluoro-1-oxo-isoindolin-2-yl]-N-thiazol-2-yl-acetamide]
< 0.05 | < 0.05 | < 0.05 |  |  |  |  |  | O=C1CC[C@H](Nc2ccc(C3CCN(C(=O)CN4CCN(Cc5ccc(-c6cc(F)c7c(c6)C(=O)N(C(C(=O)Nc6nccs6)c6ncn8c6CCC8)C7)cc5)CC4)CC3)c(F)c2)C(=O)N1 (stereo partly drawn) [Compound 59, 2-(6,7-dihydro-5H-pyrrolo[1,2-c]imidazol-1-yl)-2-[6-[4-[[4-[2-[4-[4-[[(3S)-2,6-dioxo-3-piperidyl]amino]-2-fluoro-phenyl]-1-piperidyl]-2-oxo-ethyl]piperazin-1-yl]methyl]phenyl]-4-fluoro-1-oxo-isoindolin-2-yl]-N-thiazol-2-yl-acetamide]
< 0.05 | < 0.05 | < 0.05 |  |  |  |  |  | O=C1CCC(Nc2ccc(C3CCN(CC(=O)N4CCN(c5ccc(-c6cc(F)c7c(c6)C(=O)N(C(C(=O)Nc6nccs6)c6ncn8c6CCC8)C7)cc5)CC4)CC3)c(C(F)F)c2)C(=O)N1 (stereo not drawn) [Compound 15, 2-[6-[4-[4-[2-[4-[2-(difluoromethyl)-4-[(2,6-dioxo-3-piperidyl)amino]phenyl]-1-piperidyl]acetyl]piperazin-1-yl]phenyl]-4-fluoro-1-oxo-isoindolin-2-yl]-2-(6,7-dihydro-5H-pyrrolo[1,2-c]imidazol-1-yl)-N-thiazol-2-yl-acetamide]
< 0.05 | < 0.05 | < 0.05 |  |  |  |  |  | N#Cc1cc(NC2CCC(=O)NC2=O)ccc1C1CCN(CC(=O)N2CCC(c3ccc(-c4cc(F)c5c(c4)C(=O)N(C(C(=O)Nc4nccs4)c4ncn6c4CCC6)C5)cc3)CC2)CC1 (stereo not drawn) [Compound 25, 2-(6-(4-(1-(2-(4-(2-cyano-4-((2,6-dioxopiperidin-3-yl)amino)phenyl)piperidin-1-yl)acetyl)piperidin-4-yl)phenyl)-4-fluoro-1-oxoisoindolin-2-yl)-2-(6,7-dihydro-5H-pyrrolo[1,2-c]imidazol-1-yl)-N-(thiazol-2-yl)acetamide]
< 0.05 | < 0.05 | < 0.05 |  |  |  |  |  | O=C1CCC(Nc2ccc(C3CCN(CC(=O)N4CC5(C4)CN(c4ccc(-c6cc(F)c7c(c6)C(=O)N(C(C(=O)Nc6nccs6)c6ncn8c6CCC8)C7)cc4)C5)CC3)cc2)C(=O)N1 (stereo not drawn) [Compound 47, 2-(6,7-dihydro-5H-pyrrolo[1,2-c]imidazol-1-yl)-2-[6-[4-[2-[2-[4-[4-[(2,6-dioxo-3-piperidyl)amino]phenyl]-1-piperidyl]acetyl]-2,6-diazaspiro[3.3]heptan-6-yl]phenyl]-4-fluoro-1-oxo-isoindolin-2-yl]-N-thiazol-2-yl-acetamide]
 |  |  | < 0.05 | < 0.05 | < 0.05 |  |  | Cn1nc(N2CCC(=O)NC2=O)c2ccc([C@@H]3CCN(CC(=O)N4CC5(C4)CN(c4ccc(-c6cc(F)c7c(c6)C(=O)N(C(C(=O)Nc6nccs6)c6ncn8c6CCC8)C7)cc4)C5)CC3(F)F)cc21 (stereo partly drawn) [Compound 94, 2-(6,7-dihydro-5H-pyrrolo[1,2-c]imidazol-1-yl)-2-(6-(4-(6-(2-((S)-4-(3-(2,4-dioxotetrahydropyrimidin-1(2H)-yl)-1-methyl-1H-indazol-6-yl)-3,3-difluoropiperidin-1-yl)acetyl)-2,6-diazaspiro[3.3]heptan-2-yl)phenyl)-4-fluoro-1-oxoisoindolin-2-yl)-N-(thiazol-2-yl)acetamide]
< 0.05 | < 0.05 | < 0.05 |  |  |  |  |  | O=C1CC[C@H](Nc2ccc(C3CCN(CC(=O)N4CCN(c5ccc(-c6cc(F)c7c(c6)C(=O)N(C(C(=O)Nc6nccs6)c6ncn8c6CCC8)C7)cc5)CC4)CC3)cc2)C(=O)N1 (stereo partly drawn) [Compound 56, 2-(6,7-dihydro-5H-pyrrolo[1,2-c]imidazol-1-yl)-2-[6-[4-[4-[2-[4-[4-[[(3S)-2,6-dioxo-3-piperidyl]amino]phenyl]-1-piperidyl]acetyl]piperazin-1-yl]phenyl]-4-fluoro-1-oxo-isoindolin-2-yl]-N-thiazol-2-yl-acetamide]
< 0.05 | < 0.05 | < 0.05 |  |  |  |  |  | N#Cc1cc(NC2CCC(=O)NC2=O)ccc1C1CCN(CC(=O)N2CCN(c3ccc(-c4cc(F)c5c(c4)C(=O)N(C(C(=O)Nc4nccs4)c4ncn6c4CCC6)C5)cc3)CC2)CC1 (stereo not drawn) [Compound 14, 2-[6-[4-[4-[2-[4-[2-cyano-4-[(2,6-dioxo-3-piperidyl)amino]phenyl]-1-piperidyl]acetyl]piperazin-1-yl]phenyl]-4-fluoro-1-oxo-isoindolin-2-yl]-2-(6,7-dihydro-5H-pyrrolo[1,2-c]imidazol-1-yl)-N-thiazol-2-yl-acetamide]
< 0.05 | < 0.05 | < 0.05 |  |  |  |  |  | O=C1CC[C@H](Nc2ccc(C3CCN(CC(=O)N4CC5(C4)CN(c4ccc(-c6cc(F)c7c(c6)C(=O)N(C(C(=O)Nc6nccs6)c6ncn8c6CCC8)C7)cc4)C5)CC3)c(F)c2)C(=O)N1 (stereo partly drawn) [Compound 48, 2-(6,7-dihydro-5H-pyrrolo[1,2-c]imidazol-1-yl)-2-[6-[4-[2-[2-[4-[4-[[(3S)-2,6-dioxo-3-piperidyl]amino]-2-fluoro-phenyl]-1-piperidyl]acetyl]-2,6-diazaspiro[3.3]heptan-6-yl]phenyl]-4-fluoro-1-oxo-isoindolin-2-yl]-N-thiazol-2-yl-acetamide]
< 0.05 |  |  |  |  |  | 0.015 | 0.02 | O=C1CC[C@H](Nc2ccc(N3CCC(O)(CC(=O)N4CC5(CCN(c6ccc(-c7cc(F)c8c(c7)C(=O)N(C(C(=O)Nc7nccs7)c7ncn9c7CCC9)C8)cc6)CC5)C4)CC3)c(F)c2)C(=O)N1 (stereo partly drawn) [Compound 12]

— patent US20240158418A1 (C4 Therapeutics, Inc., priority 2021, published 2024)
